Numbered stars: 1 amine (or outer) side, 2 acyl side, 3 side chain; on linkers, the order of the positions; unused ones are H or OH. Bridge positions count the residues as written; N and C are the ends. Peptide text beside a SMILES is read from it. TBMB = c1c(C[*:1])cc(C[*:3])cc1C[*:2]
Legend:
[1] = biological target: human plasma kallikrein (hPK) (Homo sapiens, UniProt P03952); assay: Enzyme inhibition assay, human plasma kallikrein
[2] = Rapid plasma stability profiling, method 1 (MALDI-TOF), rat plasma; type: in vitro ADME; conditions: 35% rat plasma, 37 deg C, method 1, qualitative; listed as N-methylation of Arg5
Procedure: A rapid plasma stability profiling assay was developed that employed mass spectrometric detection (MALDI-TOF, Voyager DE, Applied Biosystems) of the parent mass, until the time when the parent peptide mass was no longer observable. Specifically, 200 uM of peptide was incubated in the presence of 35% rat or human plasma (Sera labs, using citrate as anticoagulant) at 37 deg C, which was supplemented with 1×PBS (derived from a 10×PBS Stock, Sigma). At various time points (i.e. t=0, 3, 24 hrs, henceafter daily up to 10 days), 2 uL of sample was added to 18 uL of 30 mM ammonium bicarbonate in a 1:1 mixture of acetonitrile:H2O. Samples were frozen at −80 deg C until the time of analysis. For mass spectrometric analysis that determines the approximate detection window of the peptide, the acetonitrile:H2O-diluted sample of a given time point was spotted directly (0.7 uL) onto the MALDI plate. Matrix (alpha-cyanocinnamic acid, Sigma, prepared as a saturated solution in 1:1 acetonitrile:water containing 0.1% trifluoroacetic acid) was layered over the sample (1 uL). At a similar laser intensity setting on the MALDI TOF, the time could then be determined until parent peptide was no longer detectable. It should be noted that this is a qualitative assay serves to detect relative changes in plasma stability.

Human plasmin = Human plasmin (Homo sapiens, UniProt P00747); assay: Inhibition of paralogous protease plasmin; type: biochemical; conditions: highest concentration tested (100 μM)
Sequence of Human plasmin (P00747 581-810 limits assumed): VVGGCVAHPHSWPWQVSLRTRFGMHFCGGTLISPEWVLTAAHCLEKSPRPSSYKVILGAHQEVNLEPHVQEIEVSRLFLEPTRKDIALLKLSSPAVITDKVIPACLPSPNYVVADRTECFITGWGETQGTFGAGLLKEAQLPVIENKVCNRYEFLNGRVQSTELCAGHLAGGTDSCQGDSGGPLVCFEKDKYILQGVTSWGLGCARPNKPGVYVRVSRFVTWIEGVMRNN
Sequence of Human plasmin (P00747 97-580 partner limits assumed): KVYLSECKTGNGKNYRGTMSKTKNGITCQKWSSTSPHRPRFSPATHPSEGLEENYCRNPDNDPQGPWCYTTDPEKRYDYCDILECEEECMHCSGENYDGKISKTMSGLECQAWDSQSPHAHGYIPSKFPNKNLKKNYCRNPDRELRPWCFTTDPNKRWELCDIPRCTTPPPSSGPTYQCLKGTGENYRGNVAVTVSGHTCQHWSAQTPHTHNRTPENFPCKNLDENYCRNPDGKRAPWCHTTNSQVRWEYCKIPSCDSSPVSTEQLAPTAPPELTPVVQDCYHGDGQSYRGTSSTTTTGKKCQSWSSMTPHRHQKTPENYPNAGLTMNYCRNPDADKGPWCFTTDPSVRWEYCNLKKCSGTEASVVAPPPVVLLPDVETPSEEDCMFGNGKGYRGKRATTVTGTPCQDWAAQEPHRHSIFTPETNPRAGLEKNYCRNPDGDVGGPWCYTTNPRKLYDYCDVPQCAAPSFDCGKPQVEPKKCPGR
Procedure: (§1) The target specificity of the isolated bicyclic peptide inhibitors was assessed by determining the inhibition of trypsin-like human serine proteases of the class S1A which comprises 79 members (Yousef, et al, Biochem Biophys Res Commun 2003, 305 (1), 28-36). The panel of proteases included hfXIa which shares the highest sequence identity with hPK (69%) as well as the structurally less related but vital human serine proteases thrombin (36%), plasmin (34% sequence identity with hPK) and factor XIIa (35%).

[3] = biological target: rat plasma kallikrein (rPK) (Rattus norvegicus, UniProt P14272); assay: Enzyme inhibition assay, rat plasma kallikrein
Sequence of rat plasma kallikrein (rPK) (P14272 391-638 limits assumed): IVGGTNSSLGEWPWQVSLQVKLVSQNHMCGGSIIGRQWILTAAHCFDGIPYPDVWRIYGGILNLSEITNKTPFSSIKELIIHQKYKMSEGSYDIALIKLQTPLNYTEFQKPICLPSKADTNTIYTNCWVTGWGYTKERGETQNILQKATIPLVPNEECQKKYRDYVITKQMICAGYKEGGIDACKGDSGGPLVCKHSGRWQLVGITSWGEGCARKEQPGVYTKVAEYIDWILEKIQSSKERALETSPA

[4] = biological target: T1, Human factor XIIa (hfXIIa) (Homo sapiens, UniProt P00748); assay: Inhibition of paralogous protease factor XIIa; type: biochemical; conditions: for inhibition of factor XIIa: highest concentration tested (100 μM)
T1 sequence (P00748 373-615 limits assumed): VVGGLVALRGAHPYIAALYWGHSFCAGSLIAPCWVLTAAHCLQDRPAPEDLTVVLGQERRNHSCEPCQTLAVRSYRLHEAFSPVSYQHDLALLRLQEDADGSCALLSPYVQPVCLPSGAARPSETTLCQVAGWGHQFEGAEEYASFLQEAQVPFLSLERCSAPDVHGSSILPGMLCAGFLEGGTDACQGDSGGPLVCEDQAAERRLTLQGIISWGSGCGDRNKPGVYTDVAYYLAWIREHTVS
Procedure: as §1

Human thrombin = Human thrombin (Homo sapiens, UniProt P00734); assay: Inhibition of paralogous protease thrombin; type: biochemical; conditions: for inhibition of thrombin: highest concentration tested (100 μM)
Procedure: as §1

Human factor XIa (hfXIa) [5] = biological target: T2, Human factor XIa (hfXIa) (Homo sapiens, UniProt P03951); assay: Inhibition of paralogous protease factor XIa; type: biochemical; conditions: highest concentration tested (100 μM)
T2 sequence (P03951 388-625 limits assumed): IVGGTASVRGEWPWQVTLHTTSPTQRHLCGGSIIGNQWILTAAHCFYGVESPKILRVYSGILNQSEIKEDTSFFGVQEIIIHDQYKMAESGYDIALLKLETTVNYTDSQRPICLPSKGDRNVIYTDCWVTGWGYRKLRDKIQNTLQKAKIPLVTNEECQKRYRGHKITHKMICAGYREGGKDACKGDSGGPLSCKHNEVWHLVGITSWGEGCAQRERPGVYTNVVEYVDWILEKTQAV
T2 sequence (P03951 19-387 partner limits assumed): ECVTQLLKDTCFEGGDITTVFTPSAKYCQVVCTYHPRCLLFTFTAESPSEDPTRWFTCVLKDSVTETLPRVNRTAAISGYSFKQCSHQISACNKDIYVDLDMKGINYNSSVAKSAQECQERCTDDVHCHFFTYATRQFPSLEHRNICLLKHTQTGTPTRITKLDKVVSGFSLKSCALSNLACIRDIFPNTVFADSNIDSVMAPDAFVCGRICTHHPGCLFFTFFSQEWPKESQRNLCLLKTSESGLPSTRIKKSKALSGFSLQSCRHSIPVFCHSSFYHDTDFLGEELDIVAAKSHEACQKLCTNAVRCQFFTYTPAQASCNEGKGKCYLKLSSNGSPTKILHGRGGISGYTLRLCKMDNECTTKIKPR
Procedure: as §1

[6] = biological target: monkey plasma kallikrein (mPK) (Macaca mulatta, UniProt A0A1D5Q7U7); assay: Inhibition of monkey plasma kallikrein
Sequence of monkey plasma kallikrein (mPK) (A0A1D5Q7U7 391-638): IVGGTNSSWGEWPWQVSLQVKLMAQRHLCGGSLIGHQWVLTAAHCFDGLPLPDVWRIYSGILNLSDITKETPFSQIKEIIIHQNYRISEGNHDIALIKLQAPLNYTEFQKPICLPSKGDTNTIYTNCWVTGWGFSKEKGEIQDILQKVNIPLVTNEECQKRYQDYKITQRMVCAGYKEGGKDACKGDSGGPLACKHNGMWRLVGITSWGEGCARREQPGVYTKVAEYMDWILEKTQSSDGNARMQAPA

Human factor XIa (hfXIa) [7] = biological target: T2, Human factor XIa (hfXIa); conditions: highest concentration tested (10 μM), Heinis et al. 2009; cited from earlier work
[8] = Quantitative plasma stability, method 3 (LC/MS), rat plasma; type: in vitro ADME; conditions: determined quantitatively by LC/MS, read-out: rat plasma halflife (converted)
Procedure: To obtain plasma stability quantitatively, peptide stock solutions (1 mM in DMSO) were shipped to Biofocus, UK, who performed the analysis. Peptides were diluted to 100 uM with water, and diluted 1:20 in plasma (5 uM final concentration, with the plasma at 95%), sampled as appropriate, precipitated as above, and quantified using a Waters Xevo TQ-MS.

| SMILES | Ki [1] | inhibition of factor XIIa [4] | inhibition of thrombin (Human thrombin) | inhibition of hfXIa (Human factor XIa (hfXIa) [5]) | other results |
| --- | --- | --- | --- | --- | --- |
| CC(=O)N[C@H]1CSCc2cc3cc(c2)CSC[C@H](NC(=O)[C@H](CCCNC(=N)N)N(C)C(=O)[C@H](C)NC(=O)[C@@H]2CCCN2C(=O)[C@H](Cc2c[nH]c4ccccc24)NC(=O)[C@H](CO)NC1=O)C(=O)N[C@@H](CC(C)C)C(=O)N[C@@H](Cc1c[nH]cn1)C(=O)N[C@@H](CCC(N)=O)C(=O)N[C@@H](CC(=O)O)C(=O)N[C@@H](CC(C)C)C(=O)N[C@H](C(N)=O)CSC3 [Ac-(06-34-18) NMeArg5] | 3.5 nM |  |  |  | fold reduction in affinity to kallikrein compared to wildtype peptide ([1]; versus Ac-06-34-18(TMB)-NH2): 20 fold; Observable in rat plasma, for days [2]: exceeds the assay time |
| C[C@H](N)C(=O)N[C@H]1CSCc2cc3cc(c2)CSC[C@H](NC(=O)[C@H](CCCNC(=N)N)NC(=O)[C@H](C)NC(=O)[C@@H]2CCCN2C(=O)[C@H](Cc2c[nH]c4ccccc24)NC(=O)[C@H](CCCNC(=N)N)NC1=O)C(=O)N[C@@H]([C@@H](C)O)C(=O)N[C@@H](Cc1c[nH]cn1)C(=O)N[C@@H](CCC(N)=O)C(=O)N[C@@H](CC(N)=O)C(=O)N[C@@H](Cc1ccc(O)cc1)C(=O)N[C@H](C(=O)N[C@@H](C)C(N)=O)CSC3 [Peptide 06-54] (H-ACRWPARCTHQNYCA-NH2; linker 2-8-14 via TBMB) | 0.49 nM | did not inhibit | did not inhibit | did not inhibit | inhibition of plasmin (Human plasmin): did not inhibit; Ki [3]: 7 nM; IC50 [4]: > 10000 nM; IC50 (Human thrombin): > 10000 nM |
| CC(C)C[C@@H]1NC(=O)[C@H](C)NC(=O)[C@H](CCC(=O)O)NC(=O)[C@H](CC(=O)O)NC(=O)[C@H](C)NC(=O)[C@@H]2CCCN2C(=O)[C@@H]2CSCc3cc(cc(c3)CSC[C@@H](C(=O)NCC(N)=O)NC1=O)CSC[C@H](NC(=O)[C@H](C)N)C(=O)N[C@@H](CO)C(=O)N[C@@H](CC(=O)O)C(=O)N[C@@H](CCCNC(=N)N)C(=O)N[C@@H](Cc1ccccc1)C(=O)N[C@@H](CCCNC(=N)N)C(=O)N[C@@H](CC(N)=O)C(=O)N2 [PK15] (H-ACSDRFRNCPADEALCG-NH2; linker 2-9-16 via TBMB) |  |  |  |  | Ki [6]: 2.9 nM; inhibition of factor XIa (hfXIa) (Human factor XIa (hfXIa) [7]): did not inhibit |
| CC(C)C[C@@H]1NC(=O)[C@H](CC(N)=O)NC(=O)[C@H](CCC(N)=O)NC(=O)[C@H](Cc2c[nH]cn2)NC(=O)[C@H](CC(C)C)NC(=O)[C@@H]2CSCc3cc(cc(c3)CSC[C@@H](C(=O)N[C@@H](C)C(N)=O)NC1=O)CSC[C@H](NC(=O)[C@H](C)N)C(=O)N[C@@H]([C@@H](C)O)C(=O)N[C@@H](Cc1ccc(O)cc1)C(=O)N1CCC[C@H]1C(=O)N[C@@H](Cc1ccc(O)cc1)C(=O)N[C@@H](CCCCN)C(=O)N2 [Peptide 2A10] (H-ACTYPYKCLHQNLCA-NH2; linker 2-8-14 via TBMB) | 4.98 nM | did not inhibit | did not inhibit | did not inhibit |  |
| CC(=O)N[C@H]1CSCc2cc3cc(c2)CSC[C@H](NC(=O)[C@H](CCCNC(=N)N)NC(=O)[C@H](C)NC(=O)[C@@H]2CCCN2C(=O)[C@H](Cc2c[nH]c4ccccc24)NC(=O)[C@H](CO)NC1=O)C(=O)N[C@@H](CC(C)C)C(=O)N[C@@H](Cc1c[nH]cn1)C(=O)N[C@@H](CCC(N)=O)C(=O)N[C@@H](CC(=O)O)C(=O)N[C@@H](CC(C)C)C(=O)N[C@H](C(N)=O)CSC3 [Ac-(06-34-18) wildtype] | 0.17 nM |  |  |  | IC50 [3]: 1.7 nM; half-life at 5 uM [8]: ~2 h |
